Results: patent US11161846B2, “Substituted pyrazolo[4,3-b]pyridines and their use as GluN2B receptor modulators” (JANSSEN PHARMACEUTICA NV, priority 2019, dated 2021)

Tests used:
[1] = target: T1, human GluN1/GluN2B NMDA receptors (Homo sapiens, UniProt Q05586+Q13224); experiment: Calcium flux (FLIPR) assay on cloned human NR1/GluN2B ion channels expressed in mammalian cells, standard assay; type: cell-based; conditions: glutamate ~EC40 and 10 μM glycine, stable cell line with Tet-On induced expression
T1 construct: expressed in transfected cells
T1 sequence (Q13224 27-1484, other chains not shown): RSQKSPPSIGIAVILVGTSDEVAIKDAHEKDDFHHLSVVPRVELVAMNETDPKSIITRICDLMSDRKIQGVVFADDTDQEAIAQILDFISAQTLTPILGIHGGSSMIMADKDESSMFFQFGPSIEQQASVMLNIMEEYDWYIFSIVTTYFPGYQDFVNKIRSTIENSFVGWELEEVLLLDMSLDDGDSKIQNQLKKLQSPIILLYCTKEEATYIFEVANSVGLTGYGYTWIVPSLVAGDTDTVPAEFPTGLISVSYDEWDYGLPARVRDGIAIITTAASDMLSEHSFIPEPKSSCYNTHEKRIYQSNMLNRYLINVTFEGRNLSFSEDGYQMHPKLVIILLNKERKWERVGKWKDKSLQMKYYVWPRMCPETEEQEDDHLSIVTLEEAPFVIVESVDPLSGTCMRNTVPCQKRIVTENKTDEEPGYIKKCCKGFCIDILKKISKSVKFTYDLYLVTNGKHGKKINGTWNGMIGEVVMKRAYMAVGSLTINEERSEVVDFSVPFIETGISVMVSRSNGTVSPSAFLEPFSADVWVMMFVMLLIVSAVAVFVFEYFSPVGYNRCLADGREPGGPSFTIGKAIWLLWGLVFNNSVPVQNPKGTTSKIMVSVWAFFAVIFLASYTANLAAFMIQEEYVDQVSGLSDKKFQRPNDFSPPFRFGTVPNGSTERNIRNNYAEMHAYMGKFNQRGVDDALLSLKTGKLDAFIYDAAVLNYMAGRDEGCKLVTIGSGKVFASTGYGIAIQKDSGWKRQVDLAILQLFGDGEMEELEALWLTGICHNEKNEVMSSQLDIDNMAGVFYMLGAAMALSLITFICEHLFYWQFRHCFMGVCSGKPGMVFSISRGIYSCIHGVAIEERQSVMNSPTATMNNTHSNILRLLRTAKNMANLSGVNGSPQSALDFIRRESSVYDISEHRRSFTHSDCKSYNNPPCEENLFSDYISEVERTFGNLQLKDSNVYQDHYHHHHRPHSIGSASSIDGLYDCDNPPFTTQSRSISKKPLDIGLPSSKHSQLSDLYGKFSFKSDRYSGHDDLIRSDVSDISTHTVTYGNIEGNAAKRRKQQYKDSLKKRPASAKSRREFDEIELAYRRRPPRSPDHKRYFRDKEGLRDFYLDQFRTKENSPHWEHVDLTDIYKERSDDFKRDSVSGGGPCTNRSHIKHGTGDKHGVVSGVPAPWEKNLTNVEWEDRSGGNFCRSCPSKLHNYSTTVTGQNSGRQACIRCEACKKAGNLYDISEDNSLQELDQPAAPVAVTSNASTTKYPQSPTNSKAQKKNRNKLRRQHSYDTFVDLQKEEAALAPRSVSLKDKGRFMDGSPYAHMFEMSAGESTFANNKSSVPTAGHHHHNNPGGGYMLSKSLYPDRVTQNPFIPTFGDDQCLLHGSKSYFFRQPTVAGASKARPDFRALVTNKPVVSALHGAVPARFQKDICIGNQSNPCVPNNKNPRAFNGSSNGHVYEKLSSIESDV
How it was run: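 Tet-On-induced stable mammalian line loaded with Calcium 5 dye (0.5 mM MgCl2 loading buffer), then assayed in pH 7.4 buffer with 137 mM NaCl, 4 mM KCl, 2 mM CaCl2. Compound was added for 5 min, then glutamate (~EC40) plus 10 µM glycine for 5 min. FLIPR fluorescence was normalized to control wells.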

[2] = Liver microsomal stability (extraction ratio); type: in vitro ADME; conditions: test compound 1 μM; 0.5 mg/mL liver microsomes, NADPH, 37° C.; species not given (method: mouse, rat, and human)
Procedure: Protocol for Liver Microsomal Stability (Extraction Ratio)
Liver Microsomal Stability.
Microsomal stability studies (Chrovian et al, “1H-Pyrrolo[3,2-b]pyridine GluN2B-Selective Negative Allosteric Modulators”. ACS Med Chem Lett. 2019 Jan. 10; 10(3):261-266) were conducted on a Biomek® FX Robotic Liquid Handling Workstation (Beckman Coulter, Brea, Calif.), which consists of a 96-channel pipette head, a 12-position workstation deck, and a plate incubator. Test compounds (1 μm) were spiked in a reaction mix consisting of 100 mM potassium phosphate buffer (pH 7.4), 3 mM MgCl2, and 0.5 mg/mL liver microsomes from mouse, rat, and human (BD Gentest). The reaction was brought to 37° C. and initiated by adding NADPH to a final concentration of 1 mM. After mixing on the plate deck, 50 μL aliquots were excised from the reaction plate at 0, 5, 10, 20, 40, and 60 min and quenched with four volumes of acetonitrile spiked with […] of the internal standard phenytoin. Quenched plates were centrifuged at 5700 rpm for 10 min at 4° C., and supernatant was diluted 1:3 in water before LC/MS/MS analysis. The compound half-lives were derived from plots of the ln of percent remaining compound over time to determine the intrinsic clearance. The predicted hepatic clearance was derived from the intrinsic clearance value using equations from the well-stirred model (Current Drug Metabolism, 2008, 9, 940-951), where no correction was made plasma protein binding and the blood to plasma concentration ratio was assumed to be one. The extraction ratio (ER) was calculated by dividing the predicted hepatic clearance by species blood flow (Q), where Q is 90, 55, and 21.7 mL/min/kg for mouse, rat and human, respectively.

Question: With `CC[S+]([O-])Cn1ncc2ncc(-c3ccc(F)c(C(F)F)c3)cc21` (single isomer, unassigned) [Example 85, (R*)-6-(3-(Difluoromethyl)-4-fluorophenyl)-1-((ethylsulfinyl)methyl)-1H-pyrazolo[4,3-b]pyridine] as the compound, how does the IC50 [1] read?
Answer: 66 nM

Question: And the “Extraction Ratio @ 1 μM” value [2]?
Answer: 0.46

Question: With `CCC(=O)Cn1ncc2ncc(-c3ccc(F)c(C(F)F)c3)cc21` [Example 4, 1-[6-[3-(Difluoromethyl)-4-fluoro-phenyl]pyrazolo[4,3-b]pyridin-1-yl]butan-2-one] as the compound, how does the IC50 [1] read?
Answer: 10 nM

Question: And the “Extraction Ratio @ 1 μM” value [2]?
Answer: 0.66

Question: For `Cc1c(F)ccc(-c2cnc3cnn(CC(=O)C4CC4)c3c2)c1C` [Example 78, 1-Cyclopropyl-2-[6-(4-fluoro-2,3-dimethyl-phenyl)pyrazolo[4,3-b]pyridin-1-yl]ethanone], which IC50 [1] is on record?
Answer: 85 nM

Question: And the “Extraction Ratio @ 1 μM” value [2]?
Answer: 0.52

Question: For `O=C(Cn1ncc2ncc(-c3cccc(C(F)F)c3)cc21)C1CC1` [Example 61, 1-Cyclopropyl-2-[6-[3-(difluoromethyl)phenyl]pyrazolo[4,3-b]pyridin-1-yl]ethanone], which IC50 [1] is on record?
Answer: 12 nM

Question: What about the “Extraction Ratio @ 1 μM” value [2] of the same compound?
Answer: 0.43

Question: What does the source list for `CCC(=O)Cn1ncc2ncc(-c3cccc(C(F)(F)F)c3F)cc21` [Example 38, 1-[6-[2-Fluoro-3-(trifluoromethyl)phenyl]pyrazolo[4,3-b]pyridin-1-yl]butan-2-one]?
Answer: IC50 [1]: 30 nM; Extraction Ratio @ 1 μM [2]: 0.61

Question: With `CCC(=O)Cn1nc(C)c2ncc(-c3ccc(F)c(C(F)F)c3)cc21` [Example 36, 1-(6-(3-(Difluoromethyl)-4-fluorophenyl)-3-methyl-1H-pyrazolo[4,3-b]pyridin-1-yl)butan-2-one] as the compound, how does the IC50 [1] read?
Answer: 27 nM

Question: What about the “Extraction Ratio @ 1 μM” value [2] of the same compound?
Answer: 0.72

Question: Which IC50 [1] does the source give for `CCN1CC(Cn2ncc3ncc(-c4ccc(F)c(C(F)F)c4)cc32)OC1=O` (racemic) [Example 131, (RS)-5-[[6-[3-(Difluoromethyl)-4-fluoro-phenyl]pyrazolo[4,3-b]pyridin-1-yl]methyl]-3-ethyl-oxazolidin-2-one] here?
Answer: 193 nM

Question: And the “Extraction Ratio @ 1 μM” value [2]?
Answer: 0.58

Question: With `CC(=O)Cn1ncc2ncc(-c3ccc(F)c(OC(F)F)c3)cc21` [Example 25, 1-[6-[3-(Difluoromethoxy)-4-fluoro-phenyl]pyrazolo[4,3-b]pyridin-1-yl]propan-2-one] as the compound, how does the IC50 [1] read?
Answer: 34 nM

Question: What about the “Extraction Ratio @ 1 μM” value [2] of the same compound?
Answer: 0.64

Question: For `CC[S+]([O-])Cn1ncc2ncc(-c3cccc(C(F)(F)F)c3F)cc21` (racemic) [Example 86, (RS)-1-(Ethylsulfinylmethyl)-6-[2-fluoro-3-(trifluoromethyl)phenyl]pyrazolo[4,3-b]pyridine], which IC50 [1] is on record?
Answer: 80 nM

Question: What about the “Extraction Ratio @ 1 μM” value [2] of the same compound?
Answer: 0.50
